According to article PMC9462664, “Preparation and identification of anti-breast cancer cells peptides released from yak milk casein” (Frontiers in Nutrition, 2022):
No end group written: not given here.

Tests used:
pepsin and trypsin = experiment: Stability against simulated gastrointestinal digestion; type: in vitro ADME; details: peptide 5 mg/mL, pepsin pH 1.2, 37°C, 2 h, then trypsin pH 8, 37°C, enzyme:peptide 1:100 (w/w), RP-HPLC, new peaks digested vs undigested
Experimental: Stability of peptides against simulated gastrointestinal digestion was performed according to the method outlined previously with slight modification ([19]). Briefly, peptide solution (5 mg/mL) was digested by pepsin (pH 1.2, 37°C) for 2 h. Then the pH of the resulting solution was altered to eight with NaOH (1.0°M) to inactivate pepsin, and the peptides solution was further digested by trypsin (2 h, 37°C). Finally, trypsin was inactivated by a hot water bath (95°C, 10 min). The ratio of enzyme to peptide was 1:100 (w/w) in the two digesting processes. The digested and undigested samples were loaded into HPLC (1260 Infinity, Agilent, Santa Clara, CA, United States), respectively, to evaluate the stability of the peptides. […]

MCF7 cells [1] = type: cell-based
Experimental: (§1) The culture medium of MDA-MB-231 and MCF7 cells were DMEM containing 10% FBS and 1% AAC. The culture medium of MCF10A was DMEM/F12 containing CT (100°ng/mL), EGF (20°ng/mL), HS (5%), hydrocortisone (0.5°μg/mL), and insulin (10°ug/mL). All the cells were incubated using an incubator (MCO-20AIC, SANYO, Japan) with 5% CO2 and 95% humidity at 37°C.
(§2) Cell activity inhibition was conducted using a CCK8 kit according to the procedure offered by the manufacturer. The trypsinized cells were transferred into the 96-well plate (8,000 cells/well) and cultured for 24 h, then they were incubated with PBS (Control), YMCH (250°μg/mL) or synthetic peptides (0, 62.5, 125, 250, 500, and 1,000°μg/mL) for 48 h or 24–72 h. The CCK8 agent (20°μL) was pipetted into the well followed by incubation (37 °C, 4 h). The absorbance of the medium was acquired at 450 nm using a microplate reader (Multiskan Spectrum, Thermo, Waltham, MA, United States). Finally, according to the below formulae, the cell viability and its inhibition rate were calculated.
(§3) Cellviability(%)=Absorbanceofmediumfromthetreatmentgroup/Absorbanceofmediumfromthecontrolgroup×100
(§4) Inhibitionrateofcellviability(%)=(1Absorbanceofmediumfromthetreatmentgroup/Absorbanceofmediumfromthecontrolgroup)×100

MDA-MB-231 cells [2] = type: cell-based
Experimental: as §1, §2, §3, §4

MCF7 cells [3] = experiment: Cell cycle determination (PI, flow cytometry); type: cell-based; details: 250 μg/mL, 48 h
Experimental: (§5) Cell cycle determination was conducted using a cell cycle kit according to its instructions. Trypsinized cells (MDA-MB-231 or MCF7) were pipetted into the 6-well plate and cultured. When cells confluence reached 50%, peptides were added to the wells, and the treatment lasted 48 h. The cells were harvested and washed with PBS. After being fixed by cold 75% ethanol, cells were treated with RNase A followed by incubation with PI. Finally, the cell cycles of samples were measured by a BD flow cytometer (FACS101, Becton, Dickinson and Company, Franklin Lakes, NJ, United States).
(§6) FIGURE 6 TPVVVPPFL elicited cell arrest of mammary carcinoma cells. MCF7 cells were incubated with TPVVVPPFL for 48 h at the concentration of 250°μg/mL. MDA-MB-231 cells were incubated with TPVVVPPFL for 48 h at the concentration of 500°μg/mL. The cell cycle distributions were analyzed using flow cytometry after treatment with PI.

MDA-MB-231 cells [4] = experiment: Cell cycle determination (PI, flow cytometry); type: cell-based; details: 500 μg/mL, 48 h
Experimental: as §5, §6

MCF7 cells [5] = experiment: Cell apoptosis determination (Annexin V/PI, flow cytometry); type: cell-based; details: 250 μg/mL, 48 h, Annexin-V and PI, mean ± SD
Experimental: (§7) Cell apoptosis determination was conducted by Annexin V staining of externalized phosphatidylserine in apoptotic cells using a cell apoptosis kit. Then the proportion of the apoptotic cells was analyzed by a BD flow cytometry (FACS101, Becton, Dickinson and Company, Franklin Lakes, NJ, United States).
(§8) FIGURE 7 TPVVVPPFL induced morphology alteration (A) and apoptosis of mammary carcinoma cells (B). MCF7 and MDA-MB-231 cells were incubated with TPVVVPPFL for 48 h at the concentration of 250 and 500°μg/mL, respectively. The image of the two cells was acquired by the inverted microscope, and the apoptotic cells were measured using a flow cytometry after treatment with Annexin-V and PI.

MDA-MB-231 cells [6] = experiment: as above; type: cell-based; details: 500 μg/mL, 48 h, Annexin-V and PI, mean ± SD
Experimental: as §7, §8

Sequence: NQFLPYPY [NQFLPYPY]
- stability against simulated gastrointestinal digestion (pepsin and trypsin): stable in the simulated digestion condition

Sequence: TPVVVPPFL [TPVVVPPFL]
- IC50 (MCF7 cells [1]): 250 µg/mL
- IC50 (MDA-MB-231 cells [2]): 500 µg/mL
- cell cycle arrest (MCF7 cells [3]): G2/M arrest
- cell cycle arrest (MDA-MB-231 cells [4]): S arrest
- apoptosis rate (MCF7 cells [5]): 48.37 ± 2.74%
- apoptosis rate (MDA-MB-231 cells [6]): 35.11 ± 2.95%
- stability against simulated gastrointestinal digestion (pepsin and trypsin): stable in the simulated digestion condition

Sequence: VAPFPEVFGK [VAPFPEVFGK]
- stability against simulated gastrointestinal digestion (pepsin and trypsin): hydrolyzed
